Test [1] concerns the target Ribosomal protein S6 kinase alpha-2 (Homo sapiens) (UniProt Q15349). In words: Selectivity interaction (Upstate Kinase Profiler service (Millipore)) EUB0000056c RPS6KA2. Particulars: at 1 µM.
In test [2] the target is Vasopressin V1a receptor (Homo sapiens) (UniProt P37288). Briefly: Selectivity interaction (Eurofins CEREP Diversity Profile (receptors and ion channels)) EUB0000279b AVPR1A. Particulars: at 10 µM.
Test [3] addresses T1, Myosin light chain kinase family member 4 (Homo sapiens) (UniProt Q86YV6).
T1 sequence (whole entry): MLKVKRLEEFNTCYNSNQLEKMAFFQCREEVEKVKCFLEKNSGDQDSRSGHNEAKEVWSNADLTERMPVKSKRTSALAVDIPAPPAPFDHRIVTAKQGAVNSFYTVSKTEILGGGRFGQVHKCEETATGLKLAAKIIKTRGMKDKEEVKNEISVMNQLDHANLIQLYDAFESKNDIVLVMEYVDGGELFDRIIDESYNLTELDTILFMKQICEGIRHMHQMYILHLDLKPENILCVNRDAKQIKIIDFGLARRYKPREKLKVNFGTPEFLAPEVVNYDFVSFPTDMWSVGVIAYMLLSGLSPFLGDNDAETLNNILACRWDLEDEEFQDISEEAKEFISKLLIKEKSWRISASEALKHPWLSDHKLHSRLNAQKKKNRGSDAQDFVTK
In words: Selectivity interaction (KinomeScan (DiscoverX)) EUB0000045b MYLK4.

Test [4] has as its target Serine/threonine-protein kinase 32A (Homo sapiens) (UniProt Q8WU08). Briefly: Selectivity interaction (KinomeScan (DiscoverX)) EUB0000607a STK32A. Particulars: at 10 µM.
Test [5] deals with Focal adhesion kinase 1 (Homo sapiens, UniProt Q05397). In words: Selectivity interaction (Kinase panel (Invitrogen)) EUB0000639a PTK2. Particulars: at 200 nM.
Focal adhesion kinase 1, sequence (Q05397 2-1052 limits assumed): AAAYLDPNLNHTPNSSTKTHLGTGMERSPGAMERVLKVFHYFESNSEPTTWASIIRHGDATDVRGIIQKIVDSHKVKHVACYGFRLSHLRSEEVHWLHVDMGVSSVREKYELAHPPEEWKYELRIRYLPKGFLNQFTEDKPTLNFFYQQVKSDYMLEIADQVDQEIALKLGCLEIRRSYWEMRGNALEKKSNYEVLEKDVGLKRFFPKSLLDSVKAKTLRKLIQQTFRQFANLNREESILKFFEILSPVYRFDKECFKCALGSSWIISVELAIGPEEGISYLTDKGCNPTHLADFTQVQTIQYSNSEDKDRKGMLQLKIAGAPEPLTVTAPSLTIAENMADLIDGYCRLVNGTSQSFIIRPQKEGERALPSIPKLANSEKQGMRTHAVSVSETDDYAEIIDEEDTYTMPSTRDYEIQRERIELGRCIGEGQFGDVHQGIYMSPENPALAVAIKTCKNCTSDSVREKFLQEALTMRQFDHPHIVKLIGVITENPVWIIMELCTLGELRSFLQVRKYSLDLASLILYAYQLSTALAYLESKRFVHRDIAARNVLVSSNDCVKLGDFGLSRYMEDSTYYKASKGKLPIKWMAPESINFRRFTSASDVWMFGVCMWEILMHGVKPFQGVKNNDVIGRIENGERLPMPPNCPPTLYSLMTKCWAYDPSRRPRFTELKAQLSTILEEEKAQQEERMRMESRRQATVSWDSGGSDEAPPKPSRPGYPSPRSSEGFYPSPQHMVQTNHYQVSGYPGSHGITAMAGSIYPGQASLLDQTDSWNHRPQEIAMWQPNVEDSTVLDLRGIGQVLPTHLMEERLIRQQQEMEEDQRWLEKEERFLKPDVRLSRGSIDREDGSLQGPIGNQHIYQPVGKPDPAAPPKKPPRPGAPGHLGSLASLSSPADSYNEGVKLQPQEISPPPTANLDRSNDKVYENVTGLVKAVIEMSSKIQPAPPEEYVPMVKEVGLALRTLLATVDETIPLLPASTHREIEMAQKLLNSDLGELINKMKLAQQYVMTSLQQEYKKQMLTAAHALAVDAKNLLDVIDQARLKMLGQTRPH
The target of test [6] is T2, Serine/threonine-protein kinase Nek1 (Homo sapiens) (UniProt Q96PY6).
T2 sequence (whole entry): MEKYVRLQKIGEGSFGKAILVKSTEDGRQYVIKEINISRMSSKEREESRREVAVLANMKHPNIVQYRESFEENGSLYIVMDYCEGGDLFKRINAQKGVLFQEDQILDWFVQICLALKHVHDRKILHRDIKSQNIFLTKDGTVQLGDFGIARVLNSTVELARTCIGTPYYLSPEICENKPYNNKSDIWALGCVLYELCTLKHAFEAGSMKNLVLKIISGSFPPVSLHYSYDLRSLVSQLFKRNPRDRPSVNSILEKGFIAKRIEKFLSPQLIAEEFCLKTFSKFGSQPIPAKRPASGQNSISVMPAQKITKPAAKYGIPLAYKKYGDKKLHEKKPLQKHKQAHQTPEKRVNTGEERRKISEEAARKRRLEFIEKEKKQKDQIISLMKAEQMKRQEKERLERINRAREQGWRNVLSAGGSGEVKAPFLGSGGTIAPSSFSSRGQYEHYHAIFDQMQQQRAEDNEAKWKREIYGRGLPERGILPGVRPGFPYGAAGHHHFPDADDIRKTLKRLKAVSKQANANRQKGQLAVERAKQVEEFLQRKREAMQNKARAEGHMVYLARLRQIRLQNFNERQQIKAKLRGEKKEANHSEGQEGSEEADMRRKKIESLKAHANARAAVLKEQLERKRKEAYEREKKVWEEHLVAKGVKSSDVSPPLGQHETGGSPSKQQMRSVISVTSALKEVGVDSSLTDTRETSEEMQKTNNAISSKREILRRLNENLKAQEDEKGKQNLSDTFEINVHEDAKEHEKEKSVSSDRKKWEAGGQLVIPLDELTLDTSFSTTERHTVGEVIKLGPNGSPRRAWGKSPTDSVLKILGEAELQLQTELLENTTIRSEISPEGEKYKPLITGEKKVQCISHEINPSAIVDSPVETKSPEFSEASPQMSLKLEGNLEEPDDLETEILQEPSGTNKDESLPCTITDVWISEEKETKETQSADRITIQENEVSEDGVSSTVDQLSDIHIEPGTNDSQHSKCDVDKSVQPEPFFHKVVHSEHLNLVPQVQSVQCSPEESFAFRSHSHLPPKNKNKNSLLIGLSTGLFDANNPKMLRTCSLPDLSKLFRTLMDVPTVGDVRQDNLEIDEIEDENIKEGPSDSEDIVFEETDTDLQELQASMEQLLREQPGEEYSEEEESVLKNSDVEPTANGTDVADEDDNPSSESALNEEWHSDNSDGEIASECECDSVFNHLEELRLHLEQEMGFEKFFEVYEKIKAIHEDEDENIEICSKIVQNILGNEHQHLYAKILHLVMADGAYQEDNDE
Briefly: Selectivity interaction (Kinase panel (DSF assay)) EUB0001559a NEK1. In general terms: In DSF a fluorescence change marks the thermal transition of the protein.

Test [7] deals with Serine/threonine-protein kinase 25 (Homo sapiens) (UniProt O00506). Briefly: Selectivity interaction (ActivX KiNativ screen (ex vivo kinase selectivity in human PBMCs)) EUB0001619a STK25. It counts as cell-based. The conditions noted are these: PBMC, at 1 µM.
Serine/threonine-protein kinase 25 (Homo sapiens), sequence (O00506 whole entry, looked up): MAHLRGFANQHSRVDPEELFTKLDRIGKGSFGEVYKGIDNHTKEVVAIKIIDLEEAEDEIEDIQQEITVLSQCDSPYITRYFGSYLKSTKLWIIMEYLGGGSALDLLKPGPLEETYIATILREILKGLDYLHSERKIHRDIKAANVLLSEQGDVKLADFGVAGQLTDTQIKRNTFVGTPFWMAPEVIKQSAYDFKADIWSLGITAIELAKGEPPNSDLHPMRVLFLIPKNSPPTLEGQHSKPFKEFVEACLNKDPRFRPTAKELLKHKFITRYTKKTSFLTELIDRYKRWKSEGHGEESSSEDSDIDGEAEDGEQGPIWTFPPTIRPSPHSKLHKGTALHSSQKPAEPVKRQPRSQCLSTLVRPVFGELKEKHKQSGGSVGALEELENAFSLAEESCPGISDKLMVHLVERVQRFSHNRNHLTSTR

Consider 7 compounds from ChEMBL document CHEMBL5465560, “Selectivity Literature for EUbOPEN Chemogenomic Library” (2024).

Ribosomal protein S6 kinase alpha-2 (Homo sapiens), sequence (Q15349 whole entry): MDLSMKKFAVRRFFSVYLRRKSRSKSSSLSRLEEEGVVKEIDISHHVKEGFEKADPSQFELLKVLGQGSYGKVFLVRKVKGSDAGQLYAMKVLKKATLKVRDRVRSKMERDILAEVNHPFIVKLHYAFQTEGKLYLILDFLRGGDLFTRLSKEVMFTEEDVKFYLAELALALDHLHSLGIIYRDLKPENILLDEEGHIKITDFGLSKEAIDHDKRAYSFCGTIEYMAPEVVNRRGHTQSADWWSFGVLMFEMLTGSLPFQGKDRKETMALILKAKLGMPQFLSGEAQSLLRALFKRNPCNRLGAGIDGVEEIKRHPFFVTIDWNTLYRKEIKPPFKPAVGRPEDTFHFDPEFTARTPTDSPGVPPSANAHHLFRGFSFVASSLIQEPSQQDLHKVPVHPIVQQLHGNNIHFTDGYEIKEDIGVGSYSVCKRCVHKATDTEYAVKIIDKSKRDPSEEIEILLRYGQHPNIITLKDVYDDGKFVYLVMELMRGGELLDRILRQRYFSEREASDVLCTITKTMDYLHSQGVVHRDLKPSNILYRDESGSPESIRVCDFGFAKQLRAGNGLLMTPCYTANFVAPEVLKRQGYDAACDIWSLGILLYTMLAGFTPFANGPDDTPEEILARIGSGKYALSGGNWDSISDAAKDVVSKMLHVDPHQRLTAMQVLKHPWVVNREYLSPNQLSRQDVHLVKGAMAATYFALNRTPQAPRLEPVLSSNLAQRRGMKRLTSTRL
Vasopressin V1a receptor (Homo sapiens), sequence (P37288 whole entry, looked up): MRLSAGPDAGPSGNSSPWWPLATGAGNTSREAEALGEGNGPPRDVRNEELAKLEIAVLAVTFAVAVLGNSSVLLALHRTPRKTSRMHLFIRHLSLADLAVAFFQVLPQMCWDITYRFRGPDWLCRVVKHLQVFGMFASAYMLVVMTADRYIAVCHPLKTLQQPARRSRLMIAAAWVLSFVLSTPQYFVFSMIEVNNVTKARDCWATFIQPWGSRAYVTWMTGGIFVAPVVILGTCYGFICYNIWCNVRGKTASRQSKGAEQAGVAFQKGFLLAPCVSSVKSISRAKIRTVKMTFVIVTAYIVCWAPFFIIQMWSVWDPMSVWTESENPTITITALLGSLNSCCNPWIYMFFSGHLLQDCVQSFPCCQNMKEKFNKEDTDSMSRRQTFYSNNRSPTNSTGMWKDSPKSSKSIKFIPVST
Serine/threonine-protein kinase 32A (Homo sapiens), sequence (Q8WU08 whole entry): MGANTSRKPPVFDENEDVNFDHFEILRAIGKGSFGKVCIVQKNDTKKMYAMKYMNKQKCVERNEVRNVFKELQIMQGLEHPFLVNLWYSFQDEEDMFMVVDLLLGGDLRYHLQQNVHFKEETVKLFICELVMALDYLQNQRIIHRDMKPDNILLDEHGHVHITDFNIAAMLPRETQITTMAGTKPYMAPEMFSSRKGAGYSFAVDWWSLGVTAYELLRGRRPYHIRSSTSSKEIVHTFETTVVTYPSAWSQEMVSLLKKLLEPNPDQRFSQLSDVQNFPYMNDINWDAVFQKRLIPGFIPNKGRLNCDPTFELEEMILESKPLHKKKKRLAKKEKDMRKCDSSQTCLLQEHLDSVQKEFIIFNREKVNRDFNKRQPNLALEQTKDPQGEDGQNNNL

Turning to `Cc1ccc(-c2ccc3c(ccc4sc5c(c43)NC[C@@H](C)NC5=O)n2)cn1`, in test [1], the % of inhibition was determined as 49%. In test [2], `CC(=O)c1cc(-c2ccccc2OCC2CC2)c2ncccn12` gave a % of control of 89%. With `C=CC(=O)Nc1cc(-n2c(=O)ccc3cnc4ccc(-c5ccc(NS(C)(=O)=O)cc5)cc4c32)ccc1C`, the % of control in test [3] (at 1 µM) worked out at 96%; in test [3] (at 10 µM) it was 97%. For the compound `CNC(=O)Nc1ccc(-c2nc(N3CC4CCC(C3)O4)c3cnn(C4CCC5(CC4)OCCO5)c3n2)cc1`, the % of control in test [4] worked out at 99%. With `CC[C@@H]1[C@H](F)C(=O)N[C@@H]1COc1nccc2cc(C(N)=O)c(OC)cc12` [ZIMLOVISERTIB], the % of inhibition in test [5] was 3.3%.

On to `CN(C(=O)c1cnn2cccnc12)c1cc2c(cc1N1CCOCC1)C(=O)N(C[C@@H](F)C(C)(C)O)C2`, for which, in test [6], the dTM was 0.4 K.

With `N#Cc1cccc(-c2c[nH]c3ncnc(N4CCOCC4)c23)c1`, the % of inhibition in test [7] is 39%.
